Numbers after ± are expanded uncertainties.
Legend:
[1] = Molar enthalpy of transition or fusion; details: Crystal; DSC
[2] = Crystal; DSC

Molar enthalpy of transition or fusion [1]: 6.72 ± 0.359 kcal/mol
Triple point temperature [2]: 446.04 ± 0.87 K
Structure (SMILES): NNC(=O)c1ccncc1 [isonicotinic acid hydrazide]
